“Also recorded” adds a separate entry of the source.
Tests used:
[1] = tested on: alcohol dependent and nondependent Wistar rats; assay: Rat operant self-administration of alcohol (dependent and nondependent rats); format: in vivo; conditions: 0, 20, 40 mg/kg IP 90 min prior, 30 min session, FR1; for operant alcohol self-administration (lever press responding for alcohol): both dependent and nondependent rats, alcohol 10% w/v
Experimental: Self-administration sessions were conducted in standard operant conditioning chambers (Med Associates). The rats were trained to self-administer alcohol as previously reported (13). First, the rats were given free-choice access to alcohol (10% w/v) and water for 1 day in their home cages to habituate them to the taste of alcohol. Second, the rats were subjected to an overnight session in the operant chambers with access to one lever (right lever) that delivered water in a fixed-ratio 1 (FR1) schedule where every lever press is reinforced with delivery of 0.1 ml of solution. Food was available ad libitum during this training. Third, after 1 day off, the rats were subjected to a 2 hour session (FR1) for 1 day and a 1 hour session (FR1) the next day, with one lever delivering alcohol (right lever). All of the subsequent sessions lasted 30 min, and two levers were available (left lever: water; right lever: alcohol) until stable levels of intake were reached. Upon completion of this procedure, the animals were allowed to self-administer a 10% (w/v) alcohol solution and water on an FR1 schedule of reinforcement.
The rats were made dependent by chronic, intermittent exposure to alcohol vapors as previously described (13).
Effect of carbenoxolone (CBX) on alcohol drinking in rats and mice.

[2] = tested on: dependent and non-dependent C57BL/6J mice; assay: Mouse limited access 2-bottle choice with chronic intermittent ethanol exposure (CIE); format: in vivo; conditions: for ethanol intake in non-dependent and dependent mice (CIE paradigm): limited access 2-bottle choice, acute IP
Experimental: Exposure of mice to repeated cycles of intermittent ethanol vapor in order to induce dependence increases ethanol drinking following withdrawal in a 2-bottle choice paradigm (112, 113). Thus, the CIE paradigm is used to test the effects of a drug on dependent and nondependent drinking in mice. Briefly, C57BL/6J mutant and WT mice had access to two bottles, one containing water and the other containing 15% (w/v) ethanol, for 2 hours starting 3 hours into the dark phase. Following acquisition of stable alcohol intake, half of the mice were subjected to repeated bouts of ethanol vapor exposure consisting of 16 hours per day for 4 days. Before each exposure to ethanol vapor, mice were IP injected with a solution of 20% v/v ethanol and 68.1 mg/kg pyrazole and immediately placed into ethanol vapor chambers (La Jolla Ethanol Research, CA). Tail blood sampling for blood ethanol level (BAL) determination was carried out daily. Target BALs were 150-200 mg %. Seventy-two hours following removal from the chambers, mice received access to water vs. 20% ethanol for 2 hours, and again over the next 4 days. The following week, mice were re-exposed to the ethanol vapor/control conditions and again tested for t2-bottle choice drinking for 5 days. Three vapor bouts followed by 2-bottle choice were carried out. Mice were weighed every 4-6 days throughout the 2-bottle choice sessions and daily during the vapor exposure bouts. Food and water were available ad libitum and mice were group housed except during the ethanol drinking sessions.

[3] = tested on: Wistar rats; conditions: saccharin 0.004%; 0 and 40 mg/kg IP 90 min prior; 30 min session, FR1; listed as carbenoxolone
[4] = in vivo; cited from earlier work
[5] = tested on: C57BL/6J mice; assay: Mouse drinking in the dark (DID) binge-like drinking; format: in vivo; conditions: for ethanol intake in the DID paradigm: mice, 4 h drinking session, vs saline vehicle
Experimental: The DID paradigm capitalizes on the circadian rhythm in drinking of mice utilizing a discrete time of exposure to ethanol to obtain pharmacologically significant ethanol drinking in a four-day procedure (114, 115). It is considered a preclinical model of binge alcohol drinking (116). Blood ethanol levels of C57BL/6J mice in DID are reliably over 100 mg % following the final drinking bout and produce behavioral intoxication in C57BL/6J mice (115). In the DID paradigm, the water bottle is replaced with a bottle containing 20% ethanol for 2 hours in the home cage 3 hours after lights go off. The design involves 3 daily drinking sessions of 2 hours and a fourth of 4 hours (114, 115).

In the case of CC1(C(=O)O)CCC2(C)CCC3(C)C(=CC(=O)C4C5(C)CCC(OC(=O)CCC(=O)O)C(C)(C)C5CCC43C)C2C1 (stereo not drawn) [Number 3, 18β-glycyrrhetinic acid 3β-O-hemisuccinate], the “operant alcohol self-administration (lever press responding for alcohol)” value ([1]; listed as CBX) was “decreases; also recorded: dose-dependently reduced”, the “operant alcohol self-administration (lever press responding for alcohol)” value ([1]; listed as carbenoxolone) was “effectively and dose-dependently reduces” and the “water intake / water responding” value ([1]; dependent and nondependent rats, listed as CBX) was “did not influence; also recorded: No significant effects”. The “ethanol intake in non-dependent and dependent mice (CIE paradigm)” value ([2]; listed as CBX) was “reduces”, the “ethanol intake in non-dependent and dependent mice (CIE paradigm)” value ([2]; listed as Carbenoxolone) was “reduced” and the “ethanol intake, dependent mice” value ([2]; limited access (2 h) 2-bottle choice after alcohol vapor, 40 mg/kg IP) was “reduced”. The “ethanol intake, non-dependent mice” value ([2]; limited access (2 h) 2-bottle choice, 20 and 40 mg/kg IP) was “reduced”, the “operant self-administration of saccharin-sweetened water” value [3] was “did not affect” and the “crossing of the blood brain barrier (BBB)” value [4] was “does not effectively cross”. For the same compound, the “time course of the effect on ethanol intake within the DID session” value ([5]; first 2 h vs whole 4 h session) was “more pronounced in the first 2 hours”, the “ethanol intake in the DID paradigm” value ([5]; listed as CBX) was “reduce” and the “ethanol intake in the DID paradigm” value ([5]; listed as Carbenoxolone) was “reduced”.

Reference: US10039772B2, “Methods and compositions for treating alcohol use disorders” (priority 2015, dated 2018)
